For data set [1] the following is noted: human.
The conditions of data set [2]: human. This is another data set of the same source.
The conditions of data set [3]: human. This is another data set of the same source.
For data set [4] the following is noted: human. This is another data set of the same source.
For data set [5] the following is noted: human. This is another data set of the same source.
A short description of data set [6]: Presence of at least one case with successful reintroduction. [column 'REINT' in source]. The conditions noted are these: human.
For data set [7] the following is noted: human. This is another data set of the same source.
The conditions of data set [8]: human, serum, 4383 h.
For data set [9] the following is noted: human. The source holds these as a separate data set.
A short description of data set [10]: Highest frequency of moderate liver toxicity observed during clinical trials, expressed as a percentage. [column '% BIOL' in source]. The conditions noted are these: human.
Data set [11] is described as follows: Highest frequency of acute liver toxicity observed during clinical trials, expressed as a percentage. [column '% AIGUE' in source]. The following applies: human.
Data set [12] in a line: Comments (NB not yet translated). [column 'COMMENTAIRES' in source]. The following applies: human.
The conditions of data set [13]: human. This is another data set of the same source.
For data set [14] the following is noted: human, serum.
The conditions of data set [15]: human, serum. The source holds these as a separate data set.
For data set [16] the following is noted: human. The source holds these as a separate data set.
Data set [17] is described as follows: Times to onset, minimal and maximal, observed in the indexed observations. [column 'DELAI' in source]. The following applies: human.

The values that follow come from ChEMBL document CHEMBL3137667, “[Drug-induced liver injury; fourteenth updated edition of the bibliographic database of liver injuries and related drugs]” (Gastroenterol Clin Biol, 2004).
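Throughout, for Hepatotoxicity (association with vascular disease): count of indexed literature references reporting vascular liver injury in humans, e.g. peliosis hepatitis, hepatic veno-occlusive disease or Budd-Chiari syndrome.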
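Throughout, for Hepatotoxicity (benign tumour): value is a count of indexed literature references citing a benign tumour confirmed by histopathology.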
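Throughout, for Hepatotoxicity (choleostasis): human cholestatic liver injury, shown by histopathology or by peak ALT or AST elevation over alkaline phosphatase ratio below 2, value counts indexed literature reports.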
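Throughout, for Hepatotoxicity (chronic liver disease): chronic liver injury confirmed by histopathology or persistently raised serum aminotransferase activity beyond 6 months, value given as the count of indexed literature references.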
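Throughout, for Hepatotoxicity (cirrhosis): value is a count of indexed literature references reporting cirrhosis confirmed by histopathology.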
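Throughout, for Hepatotoxicity (cytolytic): human cytolytic liver injury, shown by histopathology or by a ratio above 5 of peak ALT or AST elevation to alkaline phosphatase elevation, value counts indexed references.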
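Throughout, for Hepatotoxicity (granulomatous hepatitis): value is a count of indexed literature references reporting granulomatous liver disease confirmed by histopathology.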
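Throughout, for Hepatotoxicity (malignant tumour): malignant tumour confirmed by histopathology, value gives the count of indexed literature references reporting it.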
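Throughout, for Hepatotoxicity (severe hepatitis): human clinical data: severe hepatitis, meaning potentially life-threatening liver failure or clinically observed cases, the value counts how many indexed literature references report it.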
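Throughout, for Hepatotoxicity (steatosis): steatosis confirmed by histopathology, value is the count of indexed references.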

With `CC(C(=O)O)c1ccc(C(=O)c2ccccc2)s1` (centres undefined) [TIAPROFENIC ACID], the “Hepatotoxicity (association with vascular disease)” value in [1] amounted to 0. For the same compound, the “Hepatotoxicity (granulomatous hepatitis)” value in [2] was 0. The “Hepatotoxicity (cirrhosis)” value in data set [3] was 0. Further, in [4], the “Hepatotoxicity (malignant tumour)” value is reported as 0. Further, the “Hepatotoxicity (benign tumour)” value in data set [5] is given as 0. Besides, the “Hepatotoxicity (successful reintroduction)” value in data set [6] is “yes”. The “Hepatotoxicity (choleostasis)” value in [7] amounted to 2. The “Hepatotoxicity (chronic liver disease)” value in [8] was 0. For the same compound, in data set [9], the “Hepatotoxicity (severe hepatitis)” value came out at 0. Further, the “Hepatotoxicity (moderate)” value came out at 3.8% in data set [10] and 1 in data set [14]. In addition, the figures for the “Hepatotoxicity (acute)” value in data set [11] and in data set [15] were 0% and 3, respectively. In [12], the “Hepatotoxicity (comment)” value is reported as “RC/DICLOFENAC”. For the same compound, the “Hepatotoxicity (cytolytic)” value in data set [13] is given as 2. The “Hepatotoxicity (steatosis)” value in data set [16] is 0. For the same compound, the “Hepatotoxicity (time to onset)” value in data set [17] came to 3 weeks - 2 months.
ALTEPLASE: in data set [1], the “Hepatotoxicity (association with vascular disease)” value was 0. In data set [2], the “Hepatotoxicity (granulomatous hepatitis)” value is reported as 0. For the same compound, the “Hepatotoxicity (cirrhosis)” value in data set [3] is reported as 0. The “Hepatotoxicity (malignant tumour)” value in data set [4] is 0. Further, in data set [5], the “Hepatotoxicity (benign tumour)” value is 0. In data set [6], the “Hepatotoxicity (successful reintroduction)” value was “yes”. Moreover, the “Hepatotoxicity (choleostasis)” value in [7] worked out at 0. Further, the “Hepatotoxicity (chronic liver disease)” value in data set [8] is on record as 0. For the same compound, the “Hepatotoxicity (severe hepatitis)” value in data set [9] was determined as 0. Besides, the “Hepatotoxicity (moderate)” value in data set [10] was 21.2%; in data set [14], 4. Further, the “Hepatotoxicity (acute)” value in data set [11] amounted to 0%; in data set [15], 1. Also, in data set [12], the “Hepatotoxicity (comment)” value is on record as “AGGRAVATION_MVO”. In addition, the “Hepatotoxicity (cytolytic)” value in data set [13] amounted to 1. In addition, in [16], the “Hepatotoxicity (steatosis)” value came to 0. The “Hepatotoxicity (time to onset)” value in data set [17] is 3 days - 4 days.
As to `NC(N)=Nc1nc(CSCCC(N)=NS(N)(=O)=O)cs1` [FAMOTIDINE], the “Hepatotoxicity (association with vascular disease)” value in data set [1] is on record as 0. Further, in data set [2] (Liver), the “Hepatotoxicity (granulomatous hepatitis)” value was 0. Moreover, the “Hepatotoxicity (cirrhosis)” value in data set [3] was 0. Besides, the “Hepatotoxicity (malignant tumour)” value in data set [4] stood at 0. The “Hepatotoxicity (benign tumour)” value in data set [5] is recorded as 0. The “Hepatotoxicity (successful reintroduction)” value in data set [6] is “yes”. Further, the “Hepatotoxicity (choleostasis)” value in data set [7] (Liver) stood at 0. In [8], the “Hepatotoxicity (chronic liver disease)” value is reported as 0. Further, in data set [9] (Liver), the “Hepatotoxicity (severe hepatitis)” value was determined as 0. Besides, the “Hepatotoxicity (moderate)” value was 2.8% in data set [10] (Liver) and 12 in data set [14]. Besides, the entries for the “Hepatotoxicity (acute)” value in data set [11] (Liver) and in [15] were 0% and 5, respectively. Besides, the “Hepatotoxicity (comment)” value in data set [12] is “RC/CIMETIDINE”. In addition, the “Hepatotoxicity (cytolytic)” value in [13] (Liver) came to 4. For the same compound, the “Hepatotoxicity (steatosis)” value in data set [16] was 0. The “Hepatotoxicity (time to onset)” value in data set [17] worked out at 3 days - 3 weeks.
With `CCN(CC)CCCC(C)Nc1c2ccc(Cl)cc2nc2ccc(OC)cc12` (centres undefined) [QUINACRINE], the “Hepatotoxicity (association with vascular disease)” value in [1] amounted to 0. Besides, the “Hepatotoxicity (granulomatous hepatitis)” value in [2] was 0. In addition, in data set [3], the “Hepatotoxicity (cirrhosis)” value came out at 0. Further, in [4], the “Hepatotoxicity (malignant tumour)” value was 0. Also, in data set [5], the “Hepatotoxicity (benign tumour)” value came out at 0. Moreover, the “Hepatotoxicity (successful reintroduction)” value in data set [6] is on record as “yes”. Moreover, the “Hepatotoxicity (choleostasis)” value in data set [7] was 1. Moreover, the “Hepatotoxicity (chronic liver disease)” value in data set [8] is listed as 0. Also, the “Hepatotoxicity (severe hepatitis)” value in data set [9] was determined as 1. In addition, the “Hepatotoxicity (moderate)” value worked out at 0% in data set [10] and 2 in data set [14]. Moreover, the “Hepatotoxicity (acute)” value stood at 0.1% in [11] and 4 in data set [15]. Besides, in [12], the “Hepatotoxicity (comment)” value is given as “CHOLANGITE”. For the same compound, the “Hepatotoxicity (cytolytic)” value in data set [13] was determined as 2. In data set [16], the “Hepatotoxicity (steatosis)” value came out at 0. In addition, in [17], the “Hepatotoxicity (time to onset)” value turned out to be 1 week - 4 months.
Regarding `OCCN1CCN(CCCN2c3ccccc3Sc3ccc(C(F)(F)F)cc32)CC1` [FLUPHENAZINE], the “Hepatotoxicity (association with vascular disease)” value in [1] was determined as 0. Moreover, in [2], the “Hepatotoxicity (granulomatous hepatitis)” value came to 0. In addition, in [3], the “Hepatotoxicity (cirrhosis)” value is 0. Moreover, in data set [4], the “Hepatotoxicity (malignant tumour)” value is given as 0. The “Hepatotoxicity (benign tumour)” value in data set [5] came to 0. In addition, the “Hepatotoxicity (successful reintroduction)” value in [6] was “yes”. Moreover, the “Hepatotoxicity (choleostasis)” value in data set [7] is listed as 4. Besides, in data set [8], the “Hepatotoxicity (chronic liver disease)” value is given as 0. Further, in [9], the “Hepatotoxicity (severe hepatitis)” value is 0. Further, the “Hepatotoxicity (moderate)” value worked out at 0% in [10] and 2 in [14]. For the same compound, the results for the “Hepatotoxicity (acute)” value in data set [11] and in data set [15] were 1% and 5, respectively. For the same compound, in data set [12], the “Hepatotoxicity (comment)” value was “RC/HALOPERIDOL”. In addition, in data set [13], the “Hepatotoxicity (cytolytic)” value amounted to 1. The “Hepatotoxicity (steatosis)” value in data set [16] stood at 0. Moreover, the “Hepatotoxicity (time to onset)” value in [17] was 2 weeks.
On to `CC(NC(C)(C)C)C(=O)c1cccc(Cl)c1` (centres undefined) [BUPROPION], for which the “Hepatotoxicity (association with vascular disease)” value in data set [1] came to 0. Moreover, the “Hepatotoxicity (granulomatous hepatitis)” value in data set [2] turned out to be 0. Also, in data set [3], the “Hepatotoxicity (cirrhosis)” value came to 0. The “Hepatotoxicity (malignant tumour)” value in data set [4] turned out to be 0. Further, the “Hepatotoxicity (benign tumour)” value in data set [5] came out at 0. Moreover, in [6], the “Hepatotoxicity (successful reintroduction)” value is on record as “yes”. Also, the “Hepatotoxicity (choleostasis)” value in data set [7] turned out to be 2. The “Hepatotoxicity (chronic liver disease)” value in [8] is 0. The “Hepatotoxicity (severe hepatitis)” value in data set [9] (Liver) is 1. For the same compound, the “Hepatotoxicity (moderate)” value came to 0% in data set [10] (Liver) and 1 in data set [14]. In addition, the “Hepatotoxicity (acute)” value in data set [11] (Liver) stood at 0%; in data set [15], 4. For the same compound, the “Hepatotoxicity (comment)” value in data set [12] was “PERICHOLANGITE”. In [13], the “Hepatotoxicity (cytolytic)” value was found to be 4. The “Hepatotoxicity (steatosis)” value in [16] is reported as 0. Also, the “Hepatotoxicity (time to onset)” value in [17] stood at 4 days - 80 days.
As for `COCCc1ccc(OCC(O)CNC(C)C)cc1` (centres undefined) [METOPROLOL], the “Hepatotoxicity (association with vascular disease)” value in [1] was determined as 0. The “Hepatotoxicity (granulomatous hepatitis)” value in data set [2] is listed as 0. In addition, the “Hepatotoxicity (cirrhosis)” value in data set [3] was found to be 0. Besides, the “Hepatotoxicity (malignant tumour)” value in data set [4] was determined as 0. Further, the “Hepatotoxicity (benign tumour)” value in data set [5] was 0. Moreover, the “Hepatotoxicity (successful reintroduction)” value in data set [6] is given as “yes”. The “Hepatotoxicity (choleostasis)” value in [7] was 0. Also, the “Hepatotoxicity (chronic liver disease)” value in [8] is 0. The “Hepatotoxicity (severe hepatitis)” value in [9] was 0. In addition, the “Hepatotoxicity (moderate)” value is given as 32% in data set [10] and 3 in data set [14]. Besides, the “Hepatotoxicity (acute)” value in [11] is given as 0%; in [15], 1. Besides, the “Hepatotoxicity (comment)” value in data set [12] is reported as “ENCEPHALOPATHIE”. Also, the “Hepatotoxicity (cytolytic)” value in data set [13] came to 1. Further, the “Hepatotoxicity (steatosis)” value in data set [16] is given as 0. Moreover, the “Hepatotoxicity (time to onset)” value in data set [17] amounted to 5 days - 17 days.
